Experimental findings from the supplement of paper PMC10290057 are described below.

Counter-ions that a name gives are not always drawn.
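Note: Luminescence-based viability readout, five doses per compound, normalized against on-plate DMSO and empty-well controls, followed by dose-response curve fitting for every drug.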

This assay relates to HCT116. The assay is described as follows: efficacy (fitted maximal change in viability relative to DMSO control); higher = less cytotoxic (negative = loss of viability). As to conditions: 48 h.
Regarding `COC/1=C/[C@@H]2[C@@H]3CC4=C(C(=C(OC)C=C4)O)[C@]2(CCN3C)CC1=O` [Sinomenine], the efficacy was -20.7%.
Turning to `CO[C@H]1C[C@@H]2CC[C@@H](C)[C@@](O)(O2)C(=O)C(=O)N2CCCC[C@H]2C(=O)O[C@H]([C@@H](C)C[C@@H]2CC[C@@H](O)[C@H](OC)C2)CC(=O)[C@H](C)/C=C(\C)[C@@H](O)[C@@H](OC)C(=O)[C@H](C)C[C@H](C)/C=C/C=C/C=C/1C` [Sirolimus], the efficacy was -50.3%.
Turning to `Cc1cc2c(cc1CC(=O)c1sccc1[S+](=O)([O-])Nc1onc(C)c1Cl)OCO2` [Sitaxentan], the efficacy was -43.1%.
Regarding `O=C([O-])C(O)Cc1ccc(O)c(O)c1` (centres undefined) [Sodium Danshensu], the efficacy was -9.88%.
`OC(COC1=C2C(=O)\C=C(/OC2=CC=C1)C([O-])=O)COC3=C4C(=O)\C=C(/OC4=CC=C3)C([O-])=O` [Sodium cromoglycate]: the efficacy was -6.55%.
As for `CC(C)OC(=O)[C@H](C)N[P@](=O)(OC[C@H]1O[C@@H](N2\C=C/C(=O)NC2=O)[C@](C)(F)[C@@H]1O)OC3=CC=CC=C3` [Sofosbuvir], the figure is -5.68%; as for `CC1(C)CN(C(=O)c2ccc(-c3cccc4nc(NC(=O)C5CC5)nn34)cc2)C1` [Solcitinib], -18.3%; as for `CC(C)NCC(O)c1ccc(N[S+](C)(=O)[O-])cc1` (centres undefined) [Sotalol], -17.6%.
Consider `C[C@H]1CN(C[C@@H](C)N1)C2=C(F)C3=C(C(=C2F)N)C(=O)\C(=C/N3C4CC4)C(O)=O` [Sparfloxacin], for which the efficacy is -10.7%.
As to `C[C@]12Cc3cn[nH]c3C[C@@H]1CC[C@@H]1[C@@H]2CC[C@@]2(C)[C@H]1CC[C@]2(C)O` [Stanozolol], the efficacy was -19.3%.
Turning to `CC[C@H](/C=C/[C@@H](C)[C@H]1CC[C@H]2[C@@H]3CC=C4C[C@@H](O)CC[C@]4(C)[C@H]3CC[C@]12C)C(C)C` [Stigmasterol], the efficacy stood at 11.5%.
Consider `CN(N=O)C(=O)N[C@@H]1[C@@H](O)[C@H](O)[C@@H](CO)O[C@@H]1O` [Streptozocin], for which the efficacy was -15.5%.
As for `N#Cc1c(N(CC(=O)[O-])CC(=O)[O-])sc(C(=O)[O-])c1CC(=O)[O-]` [Strontium Ranelate], the efficacy is -15.5%.
Consider `Cc1nnc(N[S+](=O)([O-])c2ccc(N)cc2)s1` [Sulfamethizole], for which the efficacy is -10.7%.
Regarding `O=C(O)c1cc(/N=N/c2ccc(S(=O)(=O)Nc3ccccn3)cc2)ccc1O` [Sulfasalazine], the efficacy was 8.3%.
Under `CC1=C(CC(=O)O)c2cc(F)ccc2/C1=C\c1ccc([S+](C)[O-])cc1` (centres undefined) [Sulindac] stands -20.4%.
In the case of `CN[C@@H]1Cc2cccc3[nH]c(=O)n(c23)C1` [Sumanirole maleate], the efficacy is -12.4%.
As to `CCOCC(O)COc1ccc(NC(=O)CC[S+](C)C)cc1` (centres undefined) [Suplatast tosylate], the efficacy is -20.9%.
In the case of `Cc1ccc(C(=O)Nc2ccc([S+](=O)([O-])O)c3cc([S+](=O)([O-])O)cc([S+](=O)([O-])O)c23)cc1NC(=O)c1cccc(NC(=O)Nc2cccc(C(=O)Nc3cc(C(=O)Nc4ccc([S+](=O)([O-])O)c5cc([S+](=O)([O-])O)cc([S+](=O)([O-])O)c45)ccc3C)c2)c1` [Suramin sodium], the efficacy is -20.9%.
Regarding `CNCC(O)c1ccc(O)cc1` (centres undefined) [Synephrine], the efficacy is -16.7%.
As for `CCOC(=O)C1=CCCCC1[S+](=O)([O-])Nc1ccc(F)cc1Cl` (centres undefined) [TAK-242], the figure is -34.7%; as for `Cn1cc(-c2nc(N[C@@H]3CCCC[C@@H]3N)c(F)c3c2C(=O)NC3)cn1` [TAK-659], -31.1%.
As to `CN1C(=O)/C(=C(NC2=CC=C(I)C=C2F)\C3=C1\N=C/N(C[C@@H](O)CO)C3=O)F` [TAK-733], the efficacy is -73.1%.
Turning to `C[N]1C2=C(SC(=C2)[S+](C)[O-])C\3=C1C(=O)N(CC4=CC(=CC=C4)N)\N=C3` (centres undefined) [TEPP-46], the efficacy was determined as 21.5%.
For the compound `C[C@@H]1C\C2=C(CCC(=O)C2)/[C@H]3CC[C@@]4(C)[C@@H](CC[C@@]4(O)C#C)[C@H]13` [TIBOLONE], the efficacy was -7.38%.
As to `O=C(COCC(=O)N1CCN(C(c2ccccc2)c2ccccc2)CC1)Nc1ccc(Cl)cc1C(=O)O` [TM-5275], the efficacy stood at 6.23%.
Under `CC(C)(CNC(=O)c1cccc(-c2noc(C(F)(F)F)n2)c1)c1coc(-c2ccccc2)n1` [TMP-195] stands -21.4%; under `COC1=CC=C(C=C1)C(=O)C2CCN(CC2)CC(=O)N(CC3CC3)C\C4=N\C5=C(\COCC5)C(=O)N4` [TNKS-656], -13.6%.
For the compound `Nc1c2c(nc3ccccc13)CCCC2` [Tacrine hydrochloride], the efficacy is -50.9%.
On to `CN(C(=O)c1ccc(F)cc1C(F)(F)F)C1CCN(c2nnc(-c3ccnn3C)c3ccccc23)CC1` [Taladegib], for which the efficacy was -25.6%.
Under `C[C@@H]1CN(Cc2ccc(F)cc2)[C@@H](C)CN1C(=O)c1cc2c(C(=O)C(=O)N(C)C)cn(C)c2cc1Cl` [Talmapimod] stands -32.8%.
In the case of `Cc1coc2c1C(=O)C(=O)c1c-2ccc2c1CCCC2(C)C` [Tanshinone IIA], the efficacy is -14.6%.
Regarding `COc1cc2c(cc1OC)CN(CCc1ccc(NC(=O)c3cc(OC)c(OC)cc3NC(=O)c3cnc4ccccc4c3)cc1)CC2` [Tariquidar], the efficacy is -11.3%.
Turning to `COC1=CC=CC2=C1C(=C(/C(=O)N(C)C3=CC=C(C=C3)C(F)(F)F)C(=O)N2C)/O` [Tasquinimod], the efficacy was -6.06%.
For `CCOC(=O)c1ccc(C#Cc2ccc3c(c2)C(C)(C)CCS3)nc1` [Tazarotene], the efficacy is -38.2%.
`CCN(C1CCOCC1)C2=C(C)C(=CC(=C2)C3=CC=C(CN4CCOCC4)C=C3)C(=O)NC\C5=C(C)\C=C(C)/NC5=O` [Tazemetostat]: the efficacy is -59%.
On to `F\C1=C\N(C2CCCO2)C(=O)NC1=O` (centres undefined) [Tegafur], for which the efficacy was -8.62%.
`CC(=O)N[C@H]1[C@H](O[C@@H]2c3ccc(c(Cl)c3)Oc3cc4cc(c3O[C@@H]3O[C@H](CO)[C@@H](O)[C@H](O)[C@H]3NC(=O)CCCCCCCC(C)C)Oc3ccc(cc3Cl)C[C@H]3NC(=O)[C@H](N)c5ccc(O)c(c5)Oc5cc(O)cc(c5)[C@H](NC3=O)C(=O)N[C@H]4C(=O)N[C@H]3C(=O)N[C@@H]2C(=O)N[C@@H](C(=O)O)c2cc(O)cc(O[C@H]4O[C@H](CO)[C@@H](O)[C@H](O)[C@@H]4O)c2-c2cc3ccc2O)O[C@H](CO)[C@@H](O)[C@@H]1O` [Teicoplanin]: the efficacy was -14.5%.
Turning to `CCC[C@H](NC(=O)[C@@H]1[C@H]2CCC[C@H]2CN1C(=O)[C@@H](NC(=O)[C@@H](NC(=O)c1cnccn1)C1CCCCC1)C(C)(C)C)C(=O)C(=O)NC1CC1` [Telaprevir (VX-950)], the efficacy was -39.3%.
For `CC[C@H]1OC(=O)[C@H](C)C(=O)[C@H](C)[C@@H](O[C@H]2O[C@H](C)C[C@H](N(C)C)[C@H]2O)[C@](C)(OC)C[C@@H](C)C(=O)[C@H](C)[C@H]2N(CCCCn3cnc(-c4cccnc4)c3)C(=O)O[C@]12C` [Telithromycin], the efficacy was -11.9%.
With `CCCc1nc2c(C)cc(-c3nc4ccccc4n3C)cc2n1Cc1ccc(-c2ccccc2C(=O)O)cc1` [Telmisartan], the efficacy was -20.9%.
Under `CCOC(=O)[C@@H](N)Cc1ccc(-c2cc(O[C@H](c3ccc(Cl)cc3-n3ccc(C)n3)C(F)(F)F)nc(N)n2)cc1` [Telotristat Etiprate (LX 1606 Hippurate)] stands -95.9%.
As for `CCOC(=O)[C@H](CCc1ccccc1)N[C@H]1CS[C@H](c2cccs2)CN(CC(=O)O)C1=O.Cl` [Temocapril hydrochloride], the efficacy is 10.5%.
As to `CO[C@H]1C[C@@H]2CC[C@@H](C)[C@@](O)(O2)C(=O)C(=O)N2CCCC[C@H]2C(=O)O[C@H]([C@H](C)C[C@@H]2CC[C@@H](OC(=O)C(C)(CO)CO)[C@H](OC)C2)CC(=O)[C@H](C)/C=C(\C)[C@@H](O)[C@@H](OC)C(=O)[C@H](C)C[C@H](C)/C=C/C=C/C=C/1C` [Temsirolimus], the efficacy was -13.9%.
As for `CC[C@H](NC1=C2[NH]C=NC2=NC=N1)/C3=C(/C(=O)C4=CC=CC=C4O3)C5=CC=CC(=C5)F` [Tenalisib], the efficacy is -39.1%.
`COc1ccc2[nH]c([S+]([O-])Cc3ncc(C)c(OC)c3C)nc2n1` (centres undefined) [Tenatoprazole]: the efficacy is -10.8%.
As for `CN1\C(=C(\O)C2=C(C=CS2)[S+]1([O-])=O)C(=O)NC3=CC=CC=N3` [Tenoxicam], the figure is -10.7%; as for `C/C(O)=C(\C#N)C(=O)Nc1ccc(C(F)(F)F)cc1` [Teriflunomide], -52.2%; as for `CCN(CC)CCOc1ccc(Cc2ccccc2)cc1` [Tesmilifene hydrochloride], -27%.
In the case of `C[C@]12CC[C@H]3[C@@H](CCC/4=C/C(=O)CC[C@]34C)[C@@H]1CC[C@@H]2OC(=O)CCC5CCCC5` [Testosterone cypionate], the efficacy is -12%.
For `COc1cc2c(cc1OC)C1CC(=O)C(CC(C)C)CN1CC2` (centres undefined) [Tetrabenazine], the efficacy is -45.5%.
On to `CN(C)[C@H]\1[C@@H]2C[C@H]3C(=C(O)\[C@]2(O)C(=O)\C(=C1O)C(N)=O)/C(=O)C4=C(O)C=CC=C4[C@@]3(C)O` [Tetracycline hydrochloride], for which the efficacy is 8.73%.
In the case of `O=C1NC(O)CCN1[C@@H]1O[C@H](CO)[C@@H](O)[C@H]1O` (some centres undefined) [Tetrahydrouridine], the efficacy was -11.8%.
Take `O=C1CCC(N2C(=O)c3ccccc3C2=O)C(=O)N1` (centres undefined) [Thalidomide]: the efficacy is -16.7%.
With `Cn1c(=O)c2[nH]cnc2n(C)c1=O` [Theophyllamine], the efficacy is -11.6%.
Take `c1ccc2[nH]c(-c3cscn3)nc2c1` [Thiabendazole]: the efficacy is -7.02%.
As for `S=P(N1CC1)(N1CC1)N1CC1` [ThioTEPA], the figure is -13.1%.
As for `Cc1ccsc1C(=CCCN1CCC[C@@H](C(=O)O)C1)c1sccc1C` [Tiagabine hydrochloride], the efficacy was -8.94%.
As for `Clc1ccccc1CN1CCc2sccc2C1` [Ticlopidine hydrochloride], the figure is -21.1%.
